{
  "source": "patent US20250176602A1",
  "about": "“Composition for Proliferation of Bacteroides uniformis in the Intestinal Tract” (Asahi Group Holdings, Ltd., priority 2019, published 2025)",
  "key": {"[1]": {"experiment": "Exercise performance test, 10 km SPIN CYCLE travel time (Example 3)", "assay_type": "in vivo, human", "details": "about 200 mg/day", "protocol": "As test subjects, 21 healthy males at the ages of 20 to 49 who have exercise habits of conducting exercise with an intensity of 5 METs or more for 30 minutes or more once or twice a week and who can continue the exercise habits during the test period as well were selected.\nAmong the 21 test subjects, 10 test subjects were selected as an α-cyclodextrin (αCD) intake group, and the remaining 11 test subjects were selected as a placebo group. The test subjects themselves were not informed who belonged to which group.\nTest Supplements (tablets) having compositions described in Table 1 below were used. One tablet of the test supplements was of about 250 mg.\nEach test subject of the αCD intake group and the placebo group was asked to take in 3 tablets of the above test supplements once a day at any timing. That is, each test subject of the α-cyclodextrin intake group was asked to take in about 200 mg of α-cyclodextrin per day.\nThe intake period for the test supplements was set to 9 weeks, and change in gut flora was evaluated, a questionnaire on fatigue feeling was conducted, and change in travel time was evaluated, before the start of the intake, after 4-week intake, and after 8-week intake. […]"}, "[2]": {"experiment": "Suppression of increase in heart rate during exercise, Aerobike exercise loading test (Example 4)", "assay_type": "in vivo, human", "details": "about 1000 mg/day", "protocol": "(§1) As the test subjects, 86 healthy males at the ages of 20 to 49 who have exercise habits of conducting exercise with an intensity of 5 METs or more for 30 minutes or more once or twice a week and who can continue the exercise habits during the test period as well were selected.\n(§2) Among the 86 test subjects, 43 test subjects were selected as an α-cyclodextrin (αCD) intake group, and the remaining 43 test subjects were selected as a placebo group. The test subjects themselves were not informed who belonged to which group.\n(§3) Test Supplements (tablets) having compositions described in Table 4 below were used. One tablet of the test supplements was of about 600 mg.\n(§4) Each test subject of the αCD intake group and the placebo group was asked to take in 4 tablets of the above test supplements once a day at any timing. That is, each test subject of the α-cyclodextrin intake group was asked to take in about 1000 mg of α-cyclodextrin per day.\n(§5) The intake period for the test supplements was set to 8 weeks, and the heart rate during exercise was measured, before the start of the intake, after 4-week intake, and after 8-week intake to evaluate change in heart rate. In addition, a questionnaire on fatigue feeling was conducted before the start of the intake of the test supplements and after 8-week intake, and change in travel time was evaluated. […]"}, "[3]": {"experiment": "Fatigue feeling mitigation test, VAS general fatigue feeling (Example 5)", "assay_type": "in vivo, human", "details": "after 8-week intake, about 1000 mg/day; p<0.05", "protocol": "as §1, §2, §3, §4, §5"}, "[4]": {"system": "Bacteroides, Bifidobacterium, and Lactobacillus", "details": "obese mice given high-fat diets, fed α-cyclodextrin; cited from earlier work"}},
  "data": [
    {"smiles": "OC[C@H]1O[C@@H]2O[C@H]3[C@H](O)[C@@H](O)[C@@H](O[C@H]4[C@H](O)[C@@H](O)[C@@H](O[C@H]5[C@H](O)[C@@H](O)[C@@H](O[C@H]6[C@H](O)[C@@H](O)[C@@H](O[C@H]7[C@H](O)[C@@H](O)[C@@H](O[C@H]1[C@H](O)[C@H]2O)O[C@@H]7CO)O[C@@H]6CO)O[C@@H]5CO)O[C@@H]4CO)O[C@@H]3CO", "note": "[α-cyclodextrin]", "values": [
      {"measurement": "travel time for 10 km", "setting": "[1]; after 4-week intake, compared with same group before intake", "value": "significantly shortened"},
      {"measurement": "travel time for 10 km", "setting": "[1]; after 8-week intake, compared with same group before intake and placebo group after 8-week intake", "value": "significantly shortened"},
      {"measurement": "average heart rate for 10 minutes immediately before the end of exercise (Δ value vs before intake), compared with placebo group", "setting": "[2]; after 4-week intake, tendency", "value": "lower"},
      {"measurement": "average heart rate for 10 minutes immediately before the end of exercise (Δ value vs before intake), compared with placebo group", "setting": "[2]; after 8-week intake, p<0.05", "value": "significantly lower"},
      {"measurement": "general fatigue feeling (VAS) immediately after exercise, change vs before intake, compared with placebo group", "setting": "[3]", "value": "significantly decreased"},
      {"measurement": "accumulation of fat", "setting": "[4]", "value": "reductions in accumulation of fat"},
      {"measurement": "total bacterial cell numbers of Bacteroides, Bifidobacterium, and Lactobacillus in the intestinal tracts", "setting": "[4]", "value": "suppress decreases"}
    ]}
  ]
}
